Assay results as given in patent publication US20080058324A1, “Alpha-Keto Carbonyl Calpain Inhibitors” (SANTHERA PHARMACEUTICALS (SCHWEIZ) AG, priority 2004, published 2008).

Assays:
[1] = target: T1, human μ-calpain (Homo sapiens, UniProt P07384); assay: Enzymatic Calpain Inhibition Assay; type: biochemical; conditions: read-out: Calp I IC50
T1 construct: purchased Calbiochem
T1 sequence (P07384 1-714): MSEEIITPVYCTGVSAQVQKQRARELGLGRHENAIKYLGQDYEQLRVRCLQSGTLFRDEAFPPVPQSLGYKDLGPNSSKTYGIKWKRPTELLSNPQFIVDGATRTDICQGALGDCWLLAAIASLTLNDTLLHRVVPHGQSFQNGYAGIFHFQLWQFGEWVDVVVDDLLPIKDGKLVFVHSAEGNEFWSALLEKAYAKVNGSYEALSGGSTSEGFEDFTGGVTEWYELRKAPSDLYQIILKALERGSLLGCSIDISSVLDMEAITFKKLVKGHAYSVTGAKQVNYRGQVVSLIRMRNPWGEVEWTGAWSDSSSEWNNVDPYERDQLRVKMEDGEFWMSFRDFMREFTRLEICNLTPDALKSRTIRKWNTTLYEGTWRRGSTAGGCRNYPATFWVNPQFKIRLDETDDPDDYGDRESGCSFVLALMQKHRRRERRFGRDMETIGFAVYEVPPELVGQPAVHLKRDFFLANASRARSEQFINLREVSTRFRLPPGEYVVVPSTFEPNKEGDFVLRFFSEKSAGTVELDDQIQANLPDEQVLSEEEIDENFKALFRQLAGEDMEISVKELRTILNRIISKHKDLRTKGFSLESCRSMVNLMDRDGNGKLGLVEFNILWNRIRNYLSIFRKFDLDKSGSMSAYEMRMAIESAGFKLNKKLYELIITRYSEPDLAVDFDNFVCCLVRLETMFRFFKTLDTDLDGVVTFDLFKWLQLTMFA
T1 sequence (P04632 1-268 partner): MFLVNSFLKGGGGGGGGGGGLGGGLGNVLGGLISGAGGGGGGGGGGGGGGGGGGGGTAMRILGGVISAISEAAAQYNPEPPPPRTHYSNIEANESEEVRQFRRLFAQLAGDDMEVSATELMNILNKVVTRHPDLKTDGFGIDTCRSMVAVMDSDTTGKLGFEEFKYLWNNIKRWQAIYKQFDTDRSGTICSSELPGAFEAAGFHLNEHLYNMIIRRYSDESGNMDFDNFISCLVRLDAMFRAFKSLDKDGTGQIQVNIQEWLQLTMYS
Protocol: The Ki value was also determined in some cases. These criteria were used to measure the inhibitory effect of the compounds (I) on calpain I, calpain II and cathepsin B.
The inhibitory properties of calpain inhibitors are tested in 100 μl of a buffer containing 100 mM imidazole pH 7.5, 5 mM L-Cystein-HCl, 5 mM CaCl2, 250 μM of the calpain fluorogenic substrate Suc-Leu-Tyr-AMC (Sigma) (Sasaki et al., J. Biol. Chem., 1984, 259, 12489-12949) dissolved in 2.5 μl DMSO and 0.5 μg of human μ-calpain (Calbiochem). The inhibitors dissolved in 1 μl DMSO are added to the reaction buffer. The fluorescence of the cleavage product 7-amino-4-methylcoumarin (AMC) is followed in a SPECTRAmax GEMINI XS (Molecular Device) fluorimeter at λex=360 nm and λem=440 nm at 30° C. during 30 min at intervals of 30 sec in 96-well plates (Greiner). The initial reaction velocity at different inhibitor concentrations is plotted against the inhibitor concentration and the IC50 values determined graphically.

[2] = target: T2, 20S Proteasome (Oryctolagus cuniculus, UniProt G1T4Q9); assay: 20S Proteasome Assay; type: biochemical, Rabbit; conditions: read-out: 20S Prot IC50
T2 sequence (G1T4Q9 60-263): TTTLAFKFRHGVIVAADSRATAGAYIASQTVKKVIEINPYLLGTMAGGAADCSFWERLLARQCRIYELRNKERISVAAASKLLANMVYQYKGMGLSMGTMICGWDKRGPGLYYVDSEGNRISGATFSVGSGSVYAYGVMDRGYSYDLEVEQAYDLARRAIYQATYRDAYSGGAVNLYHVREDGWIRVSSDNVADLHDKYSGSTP
Protocol: 25 μl of a reaction buffer containing 400 μM of the fluorogenic substrate Suc-Leu-Leu-Val-Tyr-AMC (Bachem) are dispensed per well of a white microtiter plate. Test compounds dissolved in 0.5 μl DMSO are added. To start the reaction; 25 μl of reaction buffer containing 35 ng of enzyme (20S Proteasome, Rabbit, Calbiochem) are added. The increase in fluorescence (excitation at 360 nm; emission at 440 nm) is measured over 30 min at 30° C. at 30″. The IC50's are then determined from the slopes.

[3] = test system: cellular calpains in C2C12 myoblasts; assay: Calpain Inhibition Assay in C2C12 Myoblasts; type: cell-based; conditions: read-out: Calp I IC50 Myoblast
Protocol: This assay is aimed at monitoring the ability of the substance to inhibit cellular calpains. C2C12 myoblasts are grown in 96-well plates in growth medium (DMEM, 20% foetal calf serum) until they reach confluency. The growth medium is then replaced by fusion medium (DMEM, 5% horse serum). 24 hours later the fusion medium is replaced by fusion medium containing the test substances dissolved in 1 μl DMSO. After 2 hours of incubation at 37° C. the cells are loaded with the calpain fluorogenic substrate Suc-Leu-Tyr-AMC at 400 μM in 50 μl of a reaction buffer containing 135 mM NaCl; 5 mM KCl; 4 mM CaCl2; 1 mM MgCl2; 10 mM Glucose; 10 mM HEPES pH 7.25 for 20 min at room temperature. The calcium influx, necessary to activate the cellular calpains, is evoked by the addition of 50 μl reaction buffer containing 20 μM of the calcium ionophore Br-A-23187 (Molecular Probes). The fluorescence of the cleavage product AMC is measured as described above during 60 min at 37° C. at intervals of 1 min. The IC50 values are determined as described above. Comparison of the IC50 determined in the enzymatic calpain inhibition assay to the IC50 determined in the C2C12 myoblasts calpain inhibiton assay, allows to evaluate the cellular uptake or the membrane permeability of the substance.

[4] = test system: experimental muscular dystrophy in hamster; conditions: Journal of Pharmacobiodynamics, 1987, 10, 678; cited from earlier work

| IC50 [1] | IC50 [2] | IC50 [3] | melting point | Compound | life-prolonging effect [4] |
| --- | --- | --- | --- | --- | --- |
| 24 nM | 42 nM | 20 nM | 244 to 246 °C | CCNC(=O)C(=O)C(Cc1ccc(Cl)cc1)NC(=O)C(NC(=O)C(Cc1ccccc1)NC(=O)CCc1cccs1)C(C)C (centres unmarked) [Example 3] | – |
| – | – | – | – | CCOC(=O)[C@H]1O[C@@H]1C(=O)N[C@@H](CC(C)C)C(=O)NCCC(C)C [Example E-64-d] | life-prolonging effect |
